Data published in patent US10246453B2, “Benzenesulfonamide compounds and their use as therapeutic agents” (Xenon Pharmaceuticals Inc., priority 2016, dated 2019).
Counter-ions that a name gives are not always drawn.

Columns and labels:
NaV1.5 = NaV1.5 (Homo sapiens (Human), UniProt Q14524); experiment: Sodium Influx Assay (Flux), NaV1.5; conditions: read-out: Flux NaV1.5 IC50; Trex HEK293 cells, ANG2 dye; arithmetic mean
NaV1.1 = NaV1.1 (Homo sapiens (Human), UniProt P35498); experiment: Sodium Influx Assay (Flux), NaV1.1; type: cell-based; conditions: Trex HEK293 cells, ANG2 dye; arithmetic mean
NaV1.6 = NaV1.6 (Homo sapiens (Human), UniProt Q9UQD0); experiment: Sodium Influx Assay (Flux), NaV1.6; conditions: read-out: Flux NaV1.6 IC50; Trex HEK293 cells, ANG2 dye; arithmetic mean

NaV1.5, sequence (Q14524 other isoform, or with tags, fused parts or gaps): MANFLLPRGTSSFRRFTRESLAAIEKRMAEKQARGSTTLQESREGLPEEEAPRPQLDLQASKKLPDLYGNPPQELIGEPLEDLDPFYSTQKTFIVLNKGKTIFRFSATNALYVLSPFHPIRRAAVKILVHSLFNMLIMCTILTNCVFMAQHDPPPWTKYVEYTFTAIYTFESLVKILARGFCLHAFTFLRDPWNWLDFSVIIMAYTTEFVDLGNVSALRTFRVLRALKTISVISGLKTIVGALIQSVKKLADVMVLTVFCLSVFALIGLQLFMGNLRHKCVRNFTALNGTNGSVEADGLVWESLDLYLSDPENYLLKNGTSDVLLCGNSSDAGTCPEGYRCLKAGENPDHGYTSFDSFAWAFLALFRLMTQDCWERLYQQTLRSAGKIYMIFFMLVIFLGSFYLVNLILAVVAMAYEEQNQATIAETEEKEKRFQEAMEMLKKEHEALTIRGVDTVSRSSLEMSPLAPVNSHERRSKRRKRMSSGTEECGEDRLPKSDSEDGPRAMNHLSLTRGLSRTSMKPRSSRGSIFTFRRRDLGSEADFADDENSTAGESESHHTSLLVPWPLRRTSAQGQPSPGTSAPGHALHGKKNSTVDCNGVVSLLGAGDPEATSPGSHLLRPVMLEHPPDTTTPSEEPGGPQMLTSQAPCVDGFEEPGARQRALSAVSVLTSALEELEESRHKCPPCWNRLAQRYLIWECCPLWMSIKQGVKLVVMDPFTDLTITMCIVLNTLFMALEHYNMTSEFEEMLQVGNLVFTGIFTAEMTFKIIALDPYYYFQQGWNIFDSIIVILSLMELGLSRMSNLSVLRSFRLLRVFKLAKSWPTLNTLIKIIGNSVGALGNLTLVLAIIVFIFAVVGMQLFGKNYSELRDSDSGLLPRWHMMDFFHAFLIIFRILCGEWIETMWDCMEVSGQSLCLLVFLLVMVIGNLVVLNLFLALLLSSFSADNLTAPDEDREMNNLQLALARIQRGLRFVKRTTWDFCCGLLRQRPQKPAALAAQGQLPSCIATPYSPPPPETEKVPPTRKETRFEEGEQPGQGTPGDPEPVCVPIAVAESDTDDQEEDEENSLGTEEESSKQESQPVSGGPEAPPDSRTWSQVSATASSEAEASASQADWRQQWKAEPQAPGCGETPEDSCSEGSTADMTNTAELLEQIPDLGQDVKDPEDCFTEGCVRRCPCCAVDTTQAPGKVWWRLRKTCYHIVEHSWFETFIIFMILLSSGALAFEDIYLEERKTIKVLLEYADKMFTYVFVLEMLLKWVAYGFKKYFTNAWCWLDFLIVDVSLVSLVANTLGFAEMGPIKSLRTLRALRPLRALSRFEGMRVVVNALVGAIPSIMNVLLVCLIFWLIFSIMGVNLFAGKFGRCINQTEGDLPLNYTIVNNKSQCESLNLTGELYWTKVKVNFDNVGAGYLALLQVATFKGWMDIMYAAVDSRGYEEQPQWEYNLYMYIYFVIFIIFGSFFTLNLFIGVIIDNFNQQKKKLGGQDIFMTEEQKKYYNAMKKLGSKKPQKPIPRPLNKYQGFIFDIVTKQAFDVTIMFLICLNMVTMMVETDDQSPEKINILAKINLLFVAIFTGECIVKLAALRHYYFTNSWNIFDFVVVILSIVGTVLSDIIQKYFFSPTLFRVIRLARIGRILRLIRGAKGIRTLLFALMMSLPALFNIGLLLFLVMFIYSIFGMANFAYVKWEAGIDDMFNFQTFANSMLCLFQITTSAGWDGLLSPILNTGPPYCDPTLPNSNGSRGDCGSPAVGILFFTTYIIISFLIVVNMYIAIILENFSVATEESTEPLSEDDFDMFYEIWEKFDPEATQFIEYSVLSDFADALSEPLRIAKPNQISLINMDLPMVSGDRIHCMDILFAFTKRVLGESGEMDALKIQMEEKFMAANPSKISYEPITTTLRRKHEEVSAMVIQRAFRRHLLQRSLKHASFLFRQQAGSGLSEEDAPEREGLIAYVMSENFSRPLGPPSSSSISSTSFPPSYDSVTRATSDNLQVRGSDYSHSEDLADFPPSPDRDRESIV

Row | IC50 (NaV1.1) | IC50 (NaV1.6) | SMILES | IC50 (NaV1.5)
1 | 10.9 µM | 0.245 µM | Cc1cc(S(=O)(=O)Nc2cscn2)c(F)cc1N(C)[C@H]1CCN(Cc2coc(C(C)C)n2)C1 [Example 133, (S)-2-fluoro-4-((1-((2-isopropyloxazol-4-yl)methyl)pyrrolidin-3-yl)(methyl)amino)-5-methyl-N-(thiazol-4-yl)benzenesulfonamide] | > 30 µM
2 | 6.88 µM | 6.13 µM | O=S(=O)(Nc1cscn1)c1cc(Cl)c(O[C@H]2CCN(Cc3cccc(C(F)F)c3)C[C@H]2F)cc1F [Example 162, 5-chloro-4-(((3R,4S)-1-(3-(difluoromethyl)benzyl)-3-fluoropiperidin-4-yl)oxy)-2-fluoro-N-(thiazol-4-yl)benzenesulfonamide] | 5.78 µM
3 | 6.72 µM | 4.8 µM | Cc1cc(S(=O)(=O)Nc2cscn2)c(F)cc1N(C)[C@H]1CCN(Cc2nc3ccccc3s2)C1 [Example 144, (S)-4-((1-(benzo[d]thiazol-2-ylmethyl)pyrrolidin-3-yl)(methyl)amino)-2-fluoro-5-methyl-N-(thiazol-4-yl)benzenesulfonamide] | 8.47 µM
4 | 1.87 µM | 1.26 µM | CN(c1cc(F)c(S(=O)(=O)Nc2cscn2)cc1Cl)[C@H]1CCN(CCCc2ccccc2)C1 [Example 196, (S)-5-chloro-2-fluoro-4-(methyl(1-(3-phenylpropyl)pyrrolidin-3-yl)amino)-N-(thiazol-4-yl)benzenesulfonamide] | 8.2 µM
5 | 9.63 µM | 0.515 µM | Cc1cc(S(=O)(=O)Nc2cscn2)c(F)cc1N(C)[C@H]1CCN(Cc2nc(C(C)C)cs2)C1 [Example 145, (S)-2-fluoro-4-((1-((4-isopropylthiazol-2-yl)methyl)pyrrolidin-3-yl)(methyl)amino)-5-methyl-N-(thiazol-4-yl)benzenesulfonamide] | 17.1 µM
6 | 6.24 µM | 1.79 µM | CCc1cc(S(=O)(=O)Nc2cscn2)c(F)cc1N(C)[C@H]1CCN(Cc2ccccc2)C1 [Example 290, (S)-4-((1-benzylpyrrolidin-3-yl)(methyl)amino)-5-ethyl-2-fluoro-N-(thiazol-4-yl)benzenesulfonamide 2,2,2-trifluoroacetate] | 5.3 µM
7 | > 30 µM | 0.303 µM | CN(c1ccc(S(=O)(=O)Nc2ncns2)cc1Cl)[C@H]1CCN(Cc2c(F)cccc2F)C1 [Example 326, (S)-3-chloro-4-((1-(2,6-difluorobenzyl)pyrrolidin-3-yl)(methyl)amino)-N-(1,2,4-thiadiazol-5-yl)benzenesulfonamide] | 24.5 µM
8 | 10.2 µM | 0.047 µM | Cc1c(N(C)[C@H]2CCN(Cc3cccc(F)c3)C2)cc(F)c(S(=O)(=O)Nc2cscn2)c1F [Example 235, (S)-2,6-difluoro-4-((1-(3-fluorobenzyl)pyrrolidin-3-yl)(methyl)amino)-3-methyl-N-(thiazol-4-yl)benzenesulfonamide formate] | 15.4 µM
9 | 7.8 µM | 0.298 µM | Cc1cc(S(=O)(=O)Nc2cscn2)c(F)cc1N(C)[C@H]1CCN(Cc2cccc(F)c2F)C1 [compound 156, (S)-4-((1-(2,3-difluorobenzyl)pyrrolidin-3-yl)(methyl)amino)-2-fluoro-5-methyl-N-(thiazol-4-yl)benzenesulfonamide] | 10.3 µM
10 | 12.9 µM | 1.09 µM | CN(c1cc(F)c(S(=O)(=O)Nc2cscn2)cc1Cl)[C@H]1CCN(Cc2cccc(Br)n2)C1 [Example 178, (S)-4-((1-((6-bromopyridin-2-yl)methyl)pyrrolidin-3-yl)(methyl)amino)-5-chloro-2-fluoro-N-(thiazol-4-yl)benzene-sulfonamide] | 16 µM
11 | 7.48 µM | 0.572 µM | O=S(=O)(Nc1nccs1)c1ccc(OC2CCN(Cc3cccc(F)c3)CC2)c(Cl)c1 [Example 81, 3-chloro-4-(1-(3-fluorobenzyl)piperidin-4-yloxy)-N-(thiazol-2-yl)benzenesulfonamide] | 7.22 µM
12 | 11.4 µM | 4.7 µM | O=S(=O)(Nc1nccs1)c1ccc(OC2CN(Cc3ccccc3)C2)c(Cl)c1 [Example 76, 4-((1-benzylazetidin-3-yl)oxy)-3-chloro-N-(thiazol-2-yl)benzenesulfonamide] | 16.8 µM

Row | SMILES | IC50 (NaV1.1) | IC50 (NaV1.6) | IC50 (NaV1.5)
13 | O=S(=O)(Nc1nccs1)c1ccc(OC2CCN(C3CCc4ccccc43)CC2)c(Cl)c1 (stereo not drawn) [Example 49, 3-chloro-4-((1-(2,3-dihydro-1H-inden-1-yl)piperidin-4-yl)oxy)-N-(thiazol-2-yl)benzenesulfonamide 2,2,2-trifluoroacetate] | 5.59 µM | 0.491 µM | 5.4 µM
14 | O=S(=O)(Nc1nccs1)c1ccc(NC2CN(Cc3ccccc3)C2)c(Cl)c1 [Example 50, 4-((1-benzylazetidin-3-yl)amino)-3-chloro-N-(thiazol-2-yl)benzenesulfonamide 2,2,2-trifluoroacetate] | 4.15 µM | 1.08 µM | 5.71 µM
15 | O=S(=O)(Nc1cscn1)c1cc(Cl)c(N[C@@H]2CN(Cc3ccccc3)CC23CC3)cc1F [Example 264, (S)-4-((5-benzyl-5-azaspiro[2.4]heptan-7-yl)amino)-5-chloro-2-fluoro-N-(thiazol-4-yl)benzenesulfonamide 2,2,2-trifluoroacetate] | 6.01 µM | 4.79 µM | 13.1 µM
16 | Cc1cc(S(=O)(=O)Nc2cscn2)c(F)cc1N(C)[C@H]1CCN([C@H]2C[C@@H](c3ccccc3)C2)C1 [Example 109, 2-fluoro-5-methyl-4-(methyl((S)-1-((1s,3R)-3-phenylcyclobutyl)-pyrrolidin-3-yl)amino)-N-(thiazol-4-yl)benzenesulfonamide formate] | 1.99 µM | 1.11 µM | 2.8 µM
17 | O=S(=O)(Nc1cscn1)c1cc(Cl)c(N[C@H]2CCN(Cc3ccccc3)C2)cc1F [Example 258, (S)-4-((1-benzylpyrrolidin-3-yl)amino)-5-chloro-2-fluoro-N-(thiazol-4-yl)benzenesulfonamide formate] | 12.9 µM | 7.98 µM | 15.4 µM
18 | C[C@@H](c1ccccc1)N1CC[C@H](N(C)c2ccc(S(=O)(=O)Nc3cscn3)cc2Cl)C1 [Example 250, 3-chloro-4-(methyl((S)-1-((S)-1-phenylethyl)pyrrolidin-3-yl)amino)-N-(thiazol-4-yl)benzenesulfonamide 2,2,2-trifluoroacetate] | 5.5 µM | 1.42 µM | 6.48 µM
19 | Cc1cc(S(=O)(=O)Nc2cscn2)c(F)cc1O[C@H]1CCN(Cc2ccccc2)C1 [Example 273, (S)-4-((1-benzylpyrrolidin-3-yl)oxy)-2-fluoro-5-methyl-N-(thiazol-4-yl)benzenesulfonamide 2,2,2-trifluoroacetate] | 22.5 µM | 1.99 µM | 7.1 µM
20 | CN(c1cc(F)c(S(=O)(=O)Nc2cscn2)cc1Cl)[C@H]1CCN(C2(c3ccccc3F)CCC2)C1 [Example 244, (S)-5-chloro-2-fluoro-4-((1-(1-(2-fluorophenyl)cyclobutyl)pyrrolidin-3-yl)(methyl)amino)-N-(thiazol-4-yl)benzenesulfonamide formate] | 6.94 µM | 1.23 µM | 5.08 µM
